This assay concerns the target T1, MBR (Rattus norvegicus, UniProt P16257).
T1 construct: from tissue; host or cells: whole brain without cerebellum of male Wistar rats, crude membrane pellet
Kind of assay: Receptor binding experiment ([3H]PK11195 competition, rat brain membrane preparation). The settings on record: [3H]PK11195 0.5 or 1 nmol/L, Cheng and Prusoff from KD and IC50. As for the experimental part: The affinity of the compounds in the present invention to MBR was determined using rat brain membrane preparation. In addition, the measurement in the present invention was improved the accuracy of measurement and the sensitivity of measurement for evaluating the compounds in the present invention as follows. After male Wister rats were decapitated to extirpate the whole brain and cerebellums were removed. They were homogenized in ice-cold 50 mmol/L Tris-HCL buffer solution (pH 7.4), centrifuged and the obtained pellets were washed. The pellets resuspended and adjusted to about 1 mg/mL were used as rat brain membrane preparations for binding assay. The binding assay were experimented using [^3H]PK11195 as a MBR selective ligand. […]
To determine the amount of total binding in saturation binding experiment, membrane preparations, various concentrations of [^3H]PK11195, final concentration: 0.5 vol % dimethylsulfoxide (DMSO) and 50 mmol/L Tris-HCL buffer solution (pH 7.4) were mixed (total volume 200 μL) and were incubated for 1 hour at room temperature. […] The filter was dried and then the radioactivity on the filter was measured by liquid scintillation counter. The data obtained by the binding experiments were Scatchard analyzed using analysis software, KELL (Ver.6, BIOSOFT) and the dissociation constant (KD value) was determined. […]

In patent US20070099938A1, “Antistress drug and medical use thereof” (ONO PHARMACEUTICAL CO., LTD., priority 2003, published 2007) one finds Ki data, which are given here for two compounds.

Take `CC(=O)Nc1cccc(-c2ccnc(NC(=O)c3ccccc3)n2)c1` [Example 3(46), N-{4-[3-(acetylamino)phenyl]pyrimidin-2-yl}benzamide]: the affinity, expressed as Ki, was 360 nM.
In the case of `O=S(=O)(Nc1nccc(-c2cc(OC(F)F)ccc2OC(F)F)n1)c1ccccc1` [Example 5(2), N-{4-[2,5-bis(difluoromethoxy)phenyl]pyrimidin-2-yl}benzenesulfonamide], the Ki was determined as 10 nM. Against the preceding compound, the Ki is about 36-fold lower.

Broadly, the Ki is a dissociation constant, usually derived from enzyme kinetics or from competition with a known ligand. High values mean a looser hold on the target, low ones a stronger hold on the target.
